Where “and” joins values, the source holds several entries; their conditions need not be identical. Identical values can stand only once. Toxic doses and inconclusive results are not listed. How the source made its calls: active means survival T/C of 150% or more; inactive means T/C below 125% in these data.
Tested on: BDF1 mice, P388 leukemia ip, median survival T/C
Assay: NCI In Vivo Anticancer Drug Screen. Data for tumor model P388 Leukemia (intraperitoneal) in B6D2F1 (BDF1) mice
Details: endpoint: median survival time, higher = longer survival
In short: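 Antitumour effect was judged in vivo: survival in drug-treated mice, normalised to that of vehicle-dosed controls, gives the reported T/C.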

[1] = dose: 50.0 mg/kg/injection, schedule: Q01DX009 (ip), vehicle: saline with Tween-80
[2] = dose: 100.0 mg/kg/injection, schedule: Q01DX009 (ip), vehicle: saline with Tween-80
[3] = dose: 200.0 mg/kg/injection, schedule: Q01DX009 (ip), vehicle: saline with Tween-80

Measured: T/C

COc1cc(C=Nc2cc(Br)c(O)c(Br)c2)ccc1N(CCCl)CCCl
inactive: dose: 14.0 mg/kg/injection, schedule: Q01DX009 (ip), vehicle: Klucel (hydroxypropylcellulose) (HPC) 91 % of control | dose: 37.5 mg/kg/injection, schedule: Q01DX009 (ip), vehicle: Klucel (hydroxypropylcellulose) (HPC) 90 % of control | dose: 37.5 mg/kg/injection, schedule: Q04DX003 (ip), vehicle: Klucel (hydroxypropylcellulose) (HPC) 113 % of control
active: dose: 3.5 mg/kg/injection, schedule: Q04DX003 (ip), vehicle: Klucel (hydroxypropylcellulose) (HPC) 163 % of control | dose: 5.44 mg/kg/injection, schedule: Q04DX003 (ip), vehicle: Klucel (hydroxypropylcellulose) (HPC) 150 % of control | dose: 6.2 mg/kg/injection, schedule: Q01DX009 (ip), vehicle: Klucel (hydroxypropylcellulose) (HPC) 186 % of control | dose: 8.16 mg/kg/injection, schedule: Q04DX003 (ip), vehicle: Klucel (hydroxypropylcellulose) (HPC) 172 % of control | dose: 9.37 mg/kg/injection, schedule: Q01DX009 (ip), vehicle: Klucel (hydroxypropylcellulose) (HPC) 227 % of control and 259 % of control | dose: 12.37 mg/kg/injection, schedule: Q04DX003 (ip), vehicle: Klucel (hydroxypropylcellulose) (HPC) 272 % of control and 220 % of control | dose: 18.75 mg/kg/injection, schedule: Q04DX003 (ip), vehicle: Klucel (hydroxypropylcellulose) (HPC) 265 % of control and 268 % of control and 272 % of control | dose: 28.12 mg/kg/injection, schedule: Q04DX003 (ip), vehicle: Klucel (hydroxypropylcellulose) (HPC) 300 % of control

OCC1OC(c2ccc(OCc3ccccc3)cc2OCc2ccccc2)C(O)C1O (stereo not given)
inactive: [1] 105 % of control | [2] 92 % of control | [3] 92 % of control

C=CC(=O)O
inactive: dose: 0.2 mg/kg/injection, schedule: Q01DX001 (ip), vehicle: Klucel (hydroxypropylcellulose) (HPC) 95 % of control | dose: 0.41 mg/kg/injection, schedule: Q01DX001 (ip), vehicle: Klucel (hydroxypropylcellulose) (HPC) 100 % of control | dose: 0.82 mg/kg/injection, schedule: Q01DX001 (ip), vehicle: Klucel (hydroxypropylcellulose) (HPC) 104 % of control | dose: 1.15 mg/kg/injection, schedule: Q04DX003 (ip), vehicle: Klucel (hydroxypropylcellulose) (HPC) 109 % of control | dose: 1.65 mg/kg/injection, schedule: Q01DX001 (ip), vehicle: Klucel (hydroxypropylcellulose) (HPC) 115 % of control | dose: 2.3 mg/kg/injection, schedule: Q04DX003 (ip), vehicle: Klucel (hydroxypropylcellulose) (HPC) 100 % of control | dose: 3.0 mg/kg/injection, schedule: Q01DX009 (ip), vehicle: saline 100 % of control | dose: 3.0 mg/kg/injection, schedule: Q04DX003 (ip), vehicle: saline sonified 109 % of control | dose: 4.0 mg/kg/injection, schedule: Q04DX003 (ip), vehicle: saline 116 % of control | dose: 4.6 mg/kg/injection, schedule: Q04DX003 (ip), vehicle: Klucel (hydroxypropylcellulose) (HPC) 100 % of control | dose: 6.0 mg/kg/injection, schedule: Q01DX009 (ip), vehicle: saline 100 % of control | dose: 6.6 mg/kg/injection, schedule: Q04DX003 (ip), vehicle: Klucel (hydroxypropylcellulose) (HPC) 109 % of control | dose: 8.0 mg/kg/injection, schedule: Q04DX003 (ip), vehicle: saline 122 % of control | dose: 12.0 mg/kg/injection, schedule: Q04DX003 (ip), vehicle: saline 122 % of control | dose: 18.0 mg/kg/injection, schedule: Q04DX003 (ip), vehicle: saline 122 % of control
active: dose: 6.0 mg/kg/injection, schedule: Q04DX003 (ip), vehicle: saline sonified 172 % of control

NCc1c(Cl)c(Cl)c(Cl)c(CN)c1Cl
inactive: [1] 100 % of control | [2] 90 % of control | [3] 86 % of control

CCCCCCCCCCCCN(C)C
inactive: dose: 12.5 mg/kg/injection, schedule: Q04DX003 (ip), vehicle: saline 104 % of control | dose: 25.0 mg/kg/injection, schedule: Q04DX003 (ip), vehicle: saline 109 % of control | dose: 50.0 mg/kg/injection, schedule: Q04DX003 (ip), vehicle: saline 118 % of control

CC(C)(C)CC(=O)OCCC[N+](C)(C)C
inactive: dose: 6.25 mg/kg/injection, schedule: Q01DX009 (ip), vehicle: water 103 % of control | dose: 12.5 mg/kg/injection, schedule: Q01DX009 (ip), vehicle: water 119 % of control | dose: 25.0 mg/kg/injection, schedule: Q01DX009 (ip), vehicle: water 99 % of control | dose: 50.0 mg/kg/injection, schedule: Q01DX009 (ip), vehicle: water 91 % of control

Reference: PubChem BioAssay AID328 (DTP/NCI, 2004)
